Source: PubChem BioAssay (NCI)
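Briefly, cells in 96-well plates were exposed to five compound concentrations for 48 h, and endpoints were estimated by linear interpolation. At the TGI there is no net growth.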

What was measured:
Assay in all cases: NCI tumour cell line growth inhibition, 48 h
786-0 renal = tested on: 786-0 renal
A549 NSCLC = tested on: A549 NSCLC
ACHN renal = tested on: ACHN renal
CAKI-1 renal = tested on: CAKI-1 renal
CCRF-CEM leukemia = tested on: CCRF-CEM leukemia
COLO 205 colon = tested on: COLO 205 colon
DLD-1 colon = tested on: DLD-1 colon
DMS 114 small cell lung = tested on: DMS 114 small cell lung
EKVX NSCLC = tested on: EKVX NSCLC
HCC-2998 colon = tested on: HCC-2998 colon
HCT-116 colon = tested on: HCT-116 colon
HCT-15 colon = tested on: HCT-15 colon
HL-60(TB) leukemia = tested on: HL-60(TB) leukemia
HOP-18 NSCLC = tested on: HOP-18 NSCLC
HOP-62 NSCLC = tested on: HOP-62 NSCLC
HOP-92 NSCLC = tested on: HOP-92 NSCLC
HT29 colon = tested on: HT29 colon
IGROV1 ovarian = tested on: IGROV1 ovarian
K-562 leukemia = tested on: K-562 leukemia
KM12 colon = tested on: KM12 colon
KM20L2 colon = tested on: KM20L2 colon
LOX IMVI melanoma = tested on: LOX IMVI melanoma
LXFL 529 NSCLC = tested on: LXFL 529 NSCLC
M14 melanoma = tested on: M14 melanoma
M19-MEL melanoma = tested on: M19-MEL melanoma
MALME-3M melanoma = tested on: MALME-3M melanoma
NCI-H226 lung = tested on: NCI-H226 lung
NCI-H23 lung = tested on: NCI-H23 lung
NCI-H460 lung = tested on: NCI-H460 lung
NCI-H522 lung = tested on: NCI-H522 lung
OVCAR-3 ovarian = tested on: OVCAR-3 ovarian
OVCAR-4 ovarian = tested on: OVCAR-4 ovarian
OVCAR-5 ovarian = tested on: OVCAR-5 ovarian
OVCAR-8 ovarian = tested on: OVCAR-8 ovarian
RPMI-8226 leukemia = tested on: RPMI-8226 leukemia
RXF 393 renal = tested on: RXF 393 renal
SF-268 CNS = tested on: SF-268 CNS
SF-295 CNS = tested on: SF-295 CNS
SF-539 CNS = tested on: SF-539 CNS
SK-MEL-2 melanoma = tested on: SK-MEL-2 melanoma
SK-MEL-28 melanoma = tested on: SK-MEL-28 melanoma
SK-MEL-5 melanoma = tested on: SK-MEL-5 melanoma
SK-OV-3 ovarian = tested on: SK-OV-3 ovarian
SN12C renal = tested on: SN12C renal
SNB-19 CNS = tested on: SNB-19 CNS
SNB-75 CNS = tested on: SNB-75 CNS
SNB-78 CNS = tested on: SNB-78 CNS
SW-620 colon = tested on: SW-620 colon
TK-10 renal = tested on: TK-10 renal
U251 CNS = tested on: U251 CNS
UACC-257 melanoma = tested on: UACC-257 melanoma
UACC-62 melanoma = tested on: UACC-62 melanoma
UO-31 renal = tested on: UO-31 renal
A498 renal = tested on: A498 renal
DMS 273 small cell lung = tested on: DMS 273 small cell lung
MOLT-4 leukemia = tested on: MOLT-4 leukemia
SR leukemia = tested on: SR leukemia

Measured: TGI

COc1cc2c(cc1OC)C(Cc1cc(Br)c(OC)c(OC)c1)=[N+](C)CC2
> 100 µM: 786-0 renal | A549 NSCLC | ACHN renal | CAKI-1 renal | CCRF-CEM leukemia | COLO 205 colon | DLD-1 colon | EKVX NSCLC | HCC-2998 colon | HCT-116 colon | HCT-15 colon | HL-60(TB) leukemia | HOP-18 NSCLC | HOP-62 NSCLC | HOP-92 NSCLC | HT29 colon | IGROV1 ovarian | K-562 leukemia | KM12 colon | KM20L2 colon | LOX IMVI melanoma | LXFL 529 NSCLC | M14 melanoma | M19-MEL melanoma | MALME-3M melanoma | NCI-H226 lung | NCI-H23 lung | NCI-H460 lung | NCI-H522 lung | OVCAR-3 ovarian | OVCAR-4 ovarian | OVCAR-5 ovarian | OVCAR-8 ovarian | RPMI-8226 leukemia | RXF 393 renal | SF-268 CNS | SF-295 CNS | SF-539 CNS | SK-MEL-2 melanoma | SK-MEL-28 melanoma | SK-MEL-5 melanoma | SK-OV-3 ovarian | SN12C renal | SNB-19 CNS | SNB-75 CNS | SNB-78 CNS | SW-620 colon | TK-10 renal | U251 CNS | UACC-257 melanoma | UACC-62 melanoma | UO-31 renal
57 µM: DMS 114 small cell lung

CC1(C)OC2C(O1)[C@H]1OC(C(Cl)(Cl)Cl)=N[C@H]1C(I)[C@H]2N1C(=O)c2ccccc2C1=O (some centres not stated)
61.7 µM: IGROV1 ovarian
55.5 µM: OVCAR-4 ovarian
58.3 µM: MOLT-4 leukemia
88.6 µM: RXF 393 renal
97.5 µM: A549 NSCLC
65.4 µM: SR leukemia
> 100 µM: 786-0 renal | A498 renal | ACHN renal | CCRF-CEM leukemia | COLO 205 colon | DLD-1 colon | DMS 114 small cell lung | DMS 273 small cell lung | EKVX NSCLC | HCT-116 colon | HCT-15 colon | HOP-18 NSCLC | HOP-62 NSCLC | HOP-92 NSCLC | HT29 colon | K-562 leukemia | KM12 colon | KM20L2 colon | LOX IMVI melanoma | LXFL 529 NSCLC | M14 melanoma | M19-MEL melanoma | NCI-H226 lung | NCI-H23 lung | NCI-H460 lung | OVCAR-5 ovarian | OVCAR-8 ovarian | RPMI-8226 leukemia | SF-268 CNS | SF-295 CNS | SF-539 CNS | SK-MEL-28 melanoma | SK-MEL-5 melanoma | SN12C renal | SNB-19 CNS | SNB-75 CNS | SNB-78 CNS | SW-620 colon | U251 CNS | UACC-257 melanoma | UACC-62 melanoma
44.4 µM: HL-60(TB) leukemia
74.5 µM: NCI-H522 lung
